Experiments:
[1] = biological target: hGYS2 enzyme (recombinant hGYS2/GN1 protein) (Homo sapiens (Human), UniProt P54840); test: GYS2 coupled enzyme assay (PK/LDH); format: biochemical; details: geometric mean of at least 2 assay runs on separate days, read-out: Avg_IC50
In short: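 Continuous PK/LDH-coupled readout of NADH loss at 340 nm over 10 min, with 200 nM hGYS2/GN1 and 2 mM each of UDP-glucose, glucose-6-phosphate and PEP, in 50 mM Tris pH 7.5 with 0.2% glycogen and 2.5% DMSO. Slopes were normalized to controls and IC50s fit to a Hill curve from duplicates.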

[2] = biological target: hGYS1 enzyme (recombinant hGYS1/GN1 protein) (Homo sapiens (Human), UniProt P13807); test: GYS1 coupled enzyme assay (PK/LDH); format: biochemical; details: hGYS1/GN1 50 nM, UDP-Glucose 0.8 mM, G6P 1 mM; geometric mean of at least 2 runs
[3] = test system: hGYS1 enzyme / glycogen synthesis in HeLa cells; test: GYS1 cell based assay (glycogen synthesis, Glucose-glo); set-up: species or system human; details: Homo sapiens, HeLa, 24 h, 24 h incubation, 20 mM glucose, geometric mean of at least 2 runs
In short: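 HeLa cells starved 24 h in medium containing only 1× Glutamax were plated onto compound in medium with 20 mM glucose (1% DMSO final) for 24 h, 37 °C, 5% CO2. Acid lysates were Tris-quenched, glucoamylase-digested (pH 5.3, 1 h, 37 °C) and read by Glucose-glo luminescence. IC50 came from Hill fits, as geometric mean of ≥2 runs.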

hGYS1 enzyme (recombinant hGYS1/GN1 protein), sequence (P13807 whole entry): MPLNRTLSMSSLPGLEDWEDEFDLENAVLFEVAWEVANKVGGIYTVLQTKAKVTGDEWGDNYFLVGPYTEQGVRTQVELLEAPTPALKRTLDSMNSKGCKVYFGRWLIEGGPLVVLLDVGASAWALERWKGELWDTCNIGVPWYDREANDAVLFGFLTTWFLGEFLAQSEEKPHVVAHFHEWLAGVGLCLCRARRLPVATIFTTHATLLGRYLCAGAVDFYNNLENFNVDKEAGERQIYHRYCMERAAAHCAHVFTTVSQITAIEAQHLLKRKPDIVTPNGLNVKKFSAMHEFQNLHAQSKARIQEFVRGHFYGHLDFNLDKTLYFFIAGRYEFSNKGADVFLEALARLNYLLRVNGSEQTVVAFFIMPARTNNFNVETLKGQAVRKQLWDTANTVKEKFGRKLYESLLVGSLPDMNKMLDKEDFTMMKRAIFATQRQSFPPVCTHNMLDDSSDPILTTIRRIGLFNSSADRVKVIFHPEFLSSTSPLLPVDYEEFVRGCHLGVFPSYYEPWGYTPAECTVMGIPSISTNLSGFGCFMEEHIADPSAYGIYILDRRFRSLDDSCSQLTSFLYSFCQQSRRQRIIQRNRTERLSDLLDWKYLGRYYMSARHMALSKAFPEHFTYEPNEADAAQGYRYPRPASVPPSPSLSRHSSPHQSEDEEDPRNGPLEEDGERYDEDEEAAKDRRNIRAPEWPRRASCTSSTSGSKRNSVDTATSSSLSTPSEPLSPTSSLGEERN
hGYS1 enzyme (recombinant hGYS1/GN1 protein), sequence (P46976 whole entry partner): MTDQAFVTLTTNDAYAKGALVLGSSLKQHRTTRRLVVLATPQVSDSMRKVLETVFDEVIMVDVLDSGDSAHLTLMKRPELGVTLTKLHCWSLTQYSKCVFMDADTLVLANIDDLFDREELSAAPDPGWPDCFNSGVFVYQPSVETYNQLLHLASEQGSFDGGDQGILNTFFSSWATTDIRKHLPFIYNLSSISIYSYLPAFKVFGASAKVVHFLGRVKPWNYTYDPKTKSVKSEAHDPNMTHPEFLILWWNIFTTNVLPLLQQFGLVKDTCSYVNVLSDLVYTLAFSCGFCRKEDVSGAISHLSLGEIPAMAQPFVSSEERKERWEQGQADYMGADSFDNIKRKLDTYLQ
hGYS2 enzyme (recombinant hGYS2/GN1 protein), sequence (P54840 whole entry): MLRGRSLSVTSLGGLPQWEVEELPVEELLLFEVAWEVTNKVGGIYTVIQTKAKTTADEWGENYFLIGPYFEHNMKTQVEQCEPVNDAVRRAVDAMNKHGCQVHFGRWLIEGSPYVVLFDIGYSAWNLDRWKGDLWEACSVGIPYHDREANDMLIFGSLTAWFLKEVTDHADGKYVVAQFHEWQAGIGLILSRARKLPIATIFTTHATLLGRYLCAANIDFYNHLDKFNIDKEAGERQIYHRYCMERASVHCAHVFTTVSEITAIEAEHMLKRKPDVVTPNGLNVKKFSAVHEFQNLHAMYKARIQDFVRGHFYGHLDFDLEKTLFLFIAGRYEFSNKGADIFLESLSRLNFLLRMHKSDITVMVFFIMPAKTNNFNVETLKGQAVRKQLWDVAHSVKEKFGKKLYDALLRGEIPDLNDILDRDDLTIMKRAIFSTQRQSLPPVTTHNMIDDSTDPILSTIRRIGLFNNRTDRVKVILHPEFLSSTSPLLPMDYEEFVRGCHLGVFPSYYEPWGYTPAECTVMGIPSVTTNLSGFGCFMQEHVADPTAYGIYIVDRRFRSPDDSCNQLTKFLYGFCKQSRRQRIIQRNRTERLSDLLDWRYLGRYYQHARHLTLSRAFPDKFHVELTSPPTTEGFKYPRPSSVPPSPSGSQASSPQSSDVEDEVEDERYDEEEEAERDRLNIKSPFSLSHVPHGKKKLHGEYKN
hGYS2 enzyme (recombinant hGYS2/GN1 protein), sequence (P46976 whole entry partner): as the sequence (P46976 whole entry partner) above

| Structure (SMILES) | IC50 [1] | IC50 [2] | IC50 [3] |
| --- | --- | --- | --- |
| Cc1nc2ccccc2n1CC(=O)N1C[C@H](F)C[C@H]1C(=O)N[C@@H](c1ccccc1)c1ccc(C2CC2)c(F)c1 [Compound 464, (2S,4R)-N-[(S)-(4-cyclopropyl-3-fluorophenyl)(phenyl)methyl]-4-fluoro-1-[2-(2-methyl-1H-1,3-benzodiazol-1-yl)acetyl]pyrrolidine-2-carboxamide] | > 100 µM | 0.023 µM | 0.65 µM |
| O=C(N[C@@H](c1ccccc1)c1ccc(C2CC2)c(F)c1)[C@@H]1C[C@@H](F)CN1C(=O)CN1CCNCC1=O [Compound 465, (2S,4R)-N-[(S)-(4-cyclopropyl-3-fluorophenyl)(phenyl)methyl]-4-fluoro-1-[2-(2-oxopiperazin-1-yl)acetyl]pyrrolidine-2-carboxamide] | > 100 µM | 0.547 µM | 6.04 µM |
| O=C(N[C@@H](c1ccccc1)c1ccc(C2CC2)c(F)c1)[C@@H]1C[C@@H](F)CN1C(=O)CN1CCN(CC(F)(F)F)CC1=O [Compound 466, (2S,4R)-N-[(S)-(4-cyclopropyl-3-fluorophenyl)(phenyl)methyl]-4-fluoro-1-{2-[2-oxo-4-(2,2,2-trifluoroethyl)piperazin-1-yl]acetyl}pyrrolidine-2-carboxamide] | > 100 µM | 0.238 µM | 2.32 µM |
| O=C1Nc2ccccc2C1CC(=O)N1C[C@H](F)C[C@H]1C(=O)N[C@@H](c1ccccc1)c1ccc(C2CC2)c(F)c1 (stereo partly drawn) [Compound 467, (2S,4R)-N-[(S)-(4-cyclopropyl-3-fluorophenyl)(phenyl)methyl]-4-fluoro-1-[2-(2-oxo-2,3-dihydro-1H-indol-3-yl)acetyl]pyrrolidine-2-carboxamide] | > 100 µM | 0.324 µM | 4.81 µM |
| Cc1cn(CC(=O)N2C[C@H](F)C[C@H]2C(=O)N[C@@H](c2ccccc2)c2ccc(C3CC3)c(F)c2)cn1 [Compound 468, (2S,4R)-N-[(S)-(4-cyclopropyl-3-fluorophenyl)(phenyl)methyl]-4-fluoro-1-[2-(4-methyl-1H-imidazol-1-yl)acetyl]pyrrolidine-2-carboxamide] | > 100 µM | 0.091 µM | 1.43 µM |
| CCn1cc(NCC(=O)N2C[C@H](F)C[C@H]2C(=O)N[C@@H](c2ccccc2)c2ccc(C3CC3)c(F)c2)nn1 [Compound 469, (2S,4R)-N-[(S)-(4-cyclopropyl-3-fluorophenyl)(phenyl)methyl]-1-{2-[(1-ethyl-1H-1,2,3-triazol-4-yl)amino]acetyl}-4-fluoropyrrolidine-2-carboxamide] | > 100 µM | 0.061 µM | 1.18 µM |
| CCn1ncc(NCC(=O)N2C[C@H](F)C[C@H]2C(=O)N[C@@H](c2ccccc2)c2ccc(C3CC3)c(F)c2)n1 [Compound 470, (2S,4R)-N-[(S)-(4-cyclopropyl-3-fluorophenyl)(phenyl)methyl]-1-{2-[(2-ethyl-2H-1,2,3-triazol-4-yl)amino]acetyl}-4-fluoropyrrolidine-2-carboxamide] | > 100 µM | 0.082 µM | 0.96 µM |
| O=C(N[C@@H](c1ccccc1)c1ccc(C2CC2)c(F)c1)[C@@H]1C[C@@H](F)CN1C(=O)CNc1cnccn1 [Compound 471, (2S,4R)-N-[(S)-(4-cyclopropyl-3-fluorophenyl)(phenyl)methyl]-4-fluoro-1-{2-[(pyrazin-2-yl)amino]acetyl}pyrrolidine-2-carboxamide] | > 100 µM | 0.029 µM | 0.7 µM |
| Cc1nccc(NCC(=O)N2C[C@H](F)C[C@H]2C(=O)N[C@@H](c2ccccc2)c2ccc(C3CC3)c(F)c2)n1 [Compound 472, (2S,4R)-N-[(S)-(4-cyclopropyl-3-fluorophenyl)(phenyl)methyl]-4-fluoro-1-{2-[(2-methylpyrimidin-4-yl)amino]acetyl} pyrrolidine-2-carboxamide] | > 100 µM | 0.022 µM | 0.54 µM |
| CCn1ncc(N(C)CC(=O)N2C[C@H](F)C[C@H]2C(=O)N[C@@H](c2ccccc2)c2ccc(C3CC3)c(F)c2)n1 [Compound 474, (2S,4R)-N-[(S)-(4-cyclopropyl-3-fluorophenyl)(phenyl)methyl]-1-{2-[(2-ethyl-2H-1,2,3-triazol-4-yl)(methyl)amino]acetyl}-4-fluoropyrrolidine-2-carboxamide] | > 100 µM | 0.043 µM | 0.88 µM |
| CN(CC(=O)N1C[C@H](F)C[C@H]1C(=O)N[C@@H](c1ccccc1)c1ccc(C2CC2)c(F)c1)c1cnccn1 [Compound 475, (2S,4R)-N-[(S)-(4-cyclopropyl-3-fluorophenyl)(phenyl)methyl]-4-fluoro-1-{2-[methyl(pyrazin-2-yl)amino]acetyl} pyrrolidine-2-carboxamide] | > 100 µM | 0.077 µM | 1.29 µM |
| Cc1nccc(N(C)CC(=O)N2C[C@H](F)C[C@H]2C(=O)N[C@@H](c2ccccc2)c2ccc(C3CC3)c(F)c2)n1 [Compound 476, (2S,4R)-N-[(S)-(4-cyclopropyl-3-fluorophenyl)(phenyl)methyl]-4-fluoro-1-{2-[methyl(2-methylpyrimidin-4-yl)amino]acetyl} pyrrolidine-2-carboxamide] | > 100 µM | 0.039 µM | 0.9 µM |
| Cc1ccc2c(CC(=O)N3C[C@H](F)C[C@H]3C(=O)N[C@@H](c3ccccc3)c3ccc(C4CC4)c(F)c3)cccc2n1 [Compound 477, (2S,4R)-N-[(S)-(4-cyclopropyl-3-fluorophenyl)(phenyl)methyl]-4-fluoro-1-[2-(2-methylquinolin-5-yl)acetyl]pyrrolidine-2-carboxamide] | > 100 µM | 0.02 µM | 0.63 µM |
| O=C(N[C@@H](c1ccccc1)c1ccc(C2CC2)c(F)c1)[C@@H]1C[C@@H](F)CN1C(=O)Cc1ccc2ncnn2c1 [Compound 478, (2S,4R)-N-[(S)-(4-cyclopropyl-3-fluorophenyl)(phenyl)methyl]-4-fluoro-1-(2-{[1,2,4]triazolo[1,5-a]pyridin-6-yl}acetyl) pyrrolidine-2-carboxamide] | 68.2 µM | 0.069 µM | 1.19 µM |
| O=C(N[C@@H](c1ccccc1)c1ccc(C2CC2)c(F)c1)[C@@H]1C[C@@H](F)CN1C(=O)Cc1cnc2ccccn12 [Compound 479, (2S,4R)-N-[(S)-(4-cyclopropyl-3-fluorophenyl)(phenyl)methyl]-4-fluoro-1-(2-{imidazo[1,2-a]pyridin-3-yl}acetyl)pyrrolidine-2-carboxamide] | > 100 µM | 0.055 µM | 1.43 µM |
| Cc1ccc2cc(CC(=O)N3C[C@H](F)C[C@H]3C(=O)N[C@@H](c3ccccc3)c3ccc(C4CC4)c(F)c3)ccc2n1 [Compound 480, (2S,4R)-N-[(S)-(4-cyclopropyl-3-fluorophenyl)(phenyl)methyl]-4-fluoro-1-[2-(2-methylquinolin-6-yl)acetyl]pyrrolidine-2-carboxamide] | > 100 µM | 0.079 µM | 1.12 µM |
| O=C(N[C@@H](c1ccccc1)c1ccc(C2CC2)c(F)c1)[C@@H]1C[C@@H](F)CN1C(=O)Cn1cnnc1 [Compound 481, (2S,4R)-N-[(S)-(4-cyclopropyl-3-fluorophenyl)(phenyl)methyl]-4-fluoro-1-[2-(4H-1,2,4-triazol-4-yl)acetyl]pyrrolidine-2-carboxamide] | > 100 µM | 0.247 µM | 7.77 µM |

Reference: patent US11814367B2, “Inhibitors of glycogen synthase 1 (GYS1) and methods of use thereof” (Maze Therapeutics, Inc., priority 2021, dated 2023)
